Measured values from patent US9605004B2, “Chemical compounds” (SYNGENTA LIMITED, priority 2013, dated 2017).

What was measured:
[1] = system: a variety of test species; assay: Pre-emergence herbicidal activity (Example 8a, Table 2); assay type: in vivo; design: key: 0 = no damage to plant, 5 = total damage to plant; details: application pre-emergence, rate 1000 g/ha, evaluated after 13 days
Method in brief: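 Seeds sown in standard soil in pots, sprayed one day later (pre-emergence) with aqueous solution from acetone/water (50:50) formulation with 0.5% Tween 20. Glasshouse at 24/16 °C day/night, 14 h light, 65% humidity, watered twice daily. Damage scored after 13 days, 0 (none) to 5 (total).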

[2] = system: a variety of test species; assay: Post-emergence herbicidal activity (Example 8b, Table 3); assay type: in vivo; details: application post-emergence, rate 1000 g/ha, evaluated after 13 days, scale 0-5; for Herbicidal damage score, ABUTH: Abutilon theophrasti; for Herbicidal damage score, ALOMY: Alopecurus myosuroides; for Herbicidal damage score, AMARE: Amaranthus retroflexus; for Herbicidal damage score, ECHCG: Echinochloa crus-galli; for Herbicidal damage score, SETFA: Setaria faberi; for Herbicidal damage score, ZEAMX: Zea mays
Method in brief: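 Foliar application to 8-day-old plants using a 0.5% Tween 20 acetone/water carrier; phytotoxicity is scored visually from 0 to 5 after 13 days of growth at 24/16 °C day/night.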

Structure (SMILES)	Pre-emergence herbicidal activity, damage score ABUTH [1]	Pre-emergence herbicidal activity, damage score ALOMY [1]	Pre-emergence herbicidal activity, damage score AMARE [1]	Pre-emergence herbicidal activity, damage score ECHCG [1]	Pre-emergence herbicidal activity, damage score SETFA [1]	Pre-emergence herbicidal activity, damage score ZEAMX [1]	Herbicidal damage score, ABUTH [2]	Herbicidal damage score, ALOMY [2]	Herbicidal damage score, AMARE [2]	Herbicidal damage score, ECHCG [2]	Herbicidal damage score, SETFA [2]	Herbicidal damage score, ZEAMX [2]
CCn1nc(N2C(=O)C(Cl)=C(C)C2O)c2c1C(C)(C)CC2 (stereo not drawn) [Compound E1]	5	4	5	5	4	2	5	4	5	5	5	4
CCn1nc(N2C(=O)C(Cl)=C(C)C2O)c2c1C(C)(C)CC2 (stereo not drawn) [Compound E2]	5	3	5	5	5	3	5	5	5	5	5	5
CC1=C(Cl)C(=O)N(c2nn(C)c3c2CCCCC3(C)C)C1O (stereo not drawn) [Compound E3]	4	2	5	4	2	1	4	4	5	5	4	2
CC1=C(Cl)C(=O)N(c2nn(C)c3c2C2CCC3C2)C1O (stereo not drawn) [Compound E4]	5	3	5	4	5	2	5	4	5	5	5	4
CC1=C(Cl)C(=O)N(c2nn(C)c3c2CCCC3(C)C)C1O (stereo not drawn) [Compound E5]	5	3	5	5	5	2	5	5	5	5	5	4
CC1=C(Cl)C(=O)N(c2cc(C(C)(C)C)n(C)n2)C1OC(=O)OCC(C)C (stereo not drawn) [Compound F1]	5	3	5	5	4	2	5	5	5	5	5	5
CC1=C(Cl)C(=O)N(c2cc(C(C)(C)C)n(C)n2)C1OC(=O)Oc1ccccc1 (stereo not drawn) [Compound F2]	5	3	5	5	4	3	5	5	5	5	5	5
CC1=C(Cl)C(=O)N(c2cc(C(C)(C)C)n(C)n2)C1OC(=O)Oc1ccccc1 (stereo not drawn) [Compound F3]	5	3	5	5	4	3	5	5	5	5	5	5
CC1=C(Cl)C(=O)N(c2cc(C(C)(C)C)n(C)n2)C1OC(=O)OCC(C)C (stereo not drawn) [Compound F4]	5	3	5	5	4	2	5	5	5	5	5	5
CC1=C(Cl)C(=O)N(c2cc3n(n2)CCC3(C)C)C1O (stereo not drawn) [Compound G2]	5	4	5	5	5	4	5	5	5	5	5	4
CC1=C(Cl)C(=O)N(c2cc3n(n2)CCCC3(C)C)C1O (stereo not drawn) [Compound G4]	5	4	5	5	5	3	5	5	5	5	5	5
CC1=C(Cl)C(=O)N(c2cc3n(n2)CCC3(C)C)C1O (stereo not drawn) [Compound G8]	5	4	5	5	5	4	5	5	5	5	5	4
CC1=C(Cl)C(=O)N(c2cc3n(n2)CCCC3(C)C)C1O (stereo not drawn) [Compound G9]	5	4	5	5	5	3	5	5	5	5	5	5
CC1=C(Cl)C(=O)N(c2cc3n(n2)CCSC3(C)C)C1O (stereo not drawn) [Compound G10]	5	3	5	5	4	4	5	5	5	5	5	4
CC1=C(Cl)C(=O)N(c2cc3n(n2)CCS(=O)(=O)C3(C)C)C1O (stereo not drawn) [Compound G11]	5	4	5	5	5	4	5	5	5	5	5	3
